Assay results as given in PubChem BioAssay (NCI).
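Tested at 5 concentrations; 48 h exposure; 96-well plates; endpoints linearly interpolated, else capped at highest concentration. At the TGI there is no net growth.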

Legend:
Assay in all cases: NCI tumour cell line growth inhibition, 48 h
[1] = tested on: 786-0 renal
[2] = tested on: A498 renal
[3] = tested on: A549 NSCLC
[4] = tested on: ACHN renal
[5] = tested on: CAKI-1 renal
[6] = tested on: CCRF-CEM leukemia
[7] = tested on: COLO 205 colon
[8] = tested on: DLD-1 colon
[9] = tested on: DMS 273 small cell lung
[10] = tested on: EKVX NSCLC
[11] = tested on: HCC-2998 colon
[12] = tested on: HCT-116 colon
[13] = tested on: HCT-15 colon
[14] = tested on: HL-60(TB) leukemia
[15] = tested on: HOP-18 NSCLC
[16] = tested on: HOP-62 NSCLC
[17] = tested on: HOP-92 NSCLC
[18] = tested on: HT29 colon
[19] = tested on: IGROV1 ovarian
[20] = tested on: K-562 leukemia
[21] = tested on: KM12 colon
[22] = tested on: LOX IMVI melanoma
[23] = tested on: LXFL 529 NSCLC
[24] = tested on: M14 melanoma
[25] = tested on: M19-MEL melanoma
[26] = tested on: MALME-3M melanoma
[27] = tested on: MOLT-4 leukemia
[28] = tested on: NCI-H23 lung
[29] = tested on: NCI-H522 lung
[30] = tested on: OVCAR-3 ovarian
[31] = tested on: OVCAR-4 ovarian
[32] = tested on: OVCAR-5 ovarian
[33] = tested on: OVCAR-8 ovarian
[34] = tested on: RPMI-8226 leukemia
[35] = tested on: RXF-631 renal
[36] = tested on: SF-268 CNS
[37] = tested on: SF-295 CNS
[38] = tested on: SF-539 CNS
[39] = tested on: SK-MEL-2 melanoma
[40] = tested on: SK-MEL-28 melanoma
[41] = tested on: SK-MEL-5 melanoma
[42] = tested on: SN12C renal
[43] = tested on: SNB-19 CNS
[44] = tested on: SNB-75 CNS
[45] = tested on: SNB-78 CNS
[46] = tested on: SW-620 colon
[47] = tested on: TK-10 renal
[48] = tested on: U251 CNS
[49] = tested on: UACC-257 melanoma
[50] = tested on: UACC-62 melanoma
[51] = tested on: UO-31 renal
[52] = tested on: XF 498 CNS
[53] = tested on: KM20L2 colon
[54] = tested on: NCI-H226 lung
[55] = tested on: NCI-H460 lung
[56] = tested on: SK-OV-3 ovarian
[57] = tested on: SR leukemia

Molecule `COc1cc2c(c(OC)c1OC)-c1ccc(OC)c(=O)cc1[C@@H](N(C)C=O)CC2` has a TGI [1] greater than 100 µM, a TGI [2] of 0.665 µM and a TGI [3] greater than 100 µM. It also gave a TGI [4] greater than 100 µM, a TGI [5] greater than 100 µM and a TGI [6] greater than 100 µM. The TGI [7] was 0.0251 µM, the TGI [8] was greater than 100 µM and the TGI [9] was greater than 100 µM. For the same molecule, the TGI [10] was greater than 100 µM, the TGI [11] was greater than 100 µM and the TGI [12] was 6.83 µM. It also gave a TGI [13] greater than 100 µM, a TGI [14] of 0.0329 µM and a TGI [15] greater than 100 µM. It also gave a TGI [16] greater than 100 µM, a TGI [17] of 0.111 µM and a TGI [18] greater than 100 µM. For the same molecule, the TGI [19] was greater than 100 µM, the TGI [20] was greater than 100 µM and the TGI [21] was 0.747 µM. It also gave a TGI [22] greater than 100 µM, a TGI [23] greater than 100 µM and a TGI [24] greater than 65.6 µM. It also gave a TGI [25] greater than 100 µM, a TGI [26] greater than 100 µM and a TGI [27] greater than 100 µM. The TGI [28] was greater than 100 µM, the TGI [29] was 0.0438 µM and the TGI [30] was 0.047 µM. For the same molecule, the TGI [31] was greater than 100 µM, the TGI [32] was greater than 100 µM and the TGI [33] was greater than 100 µM. The TGI [34] was greater than 100 µM, the TGI [35] was greater than 26.2 µM and the TGI [36] was greater than 100 µM. The TGI [37] was 0.0365 µM, the TGI [38] was 0.0247 µM and the TGI [39] was 0.0487 µM. The TGI [40] was greater than 100 µM, the TGI [41] was 0.0401 µM and the TGI [42] was greater than 100 µM. For the same molecule, the TGI [43] was greater than 100 µM, the TGI [44] was 0.615 µM and the TGI [45] was greater than 100 µM. It also gave a TGI [46] greater than 100 µM, a TGI [47] greater than 100 µM and a TGI [48] greater than 4.68 µM. The TGI [49] was greater than 100 µM, the TGI [50] was greater than 100 µM and the TGI [51] was greater than 100 µM. It also gave a TGI [52] greater than 23 µM.

Work on `CCC(C(=O)c1ccccc1)C(CCCC(=O)Nc1c(C)cccc1C)N=O` (stereo not drawn) yielded a TGI [1] greater than 100 µM, a TGI [2] greater than 100 µM and a TGI [3] greater than 100 µM. For the same molecule, the TGI [4] was greater than 100 µM, the TGI [5] was greater than 100 µM and the TGI [6] was greater than 100 µM. For the same molecule, the TGI [7] was greater than 100 µM, the TGI [8] was greater than 100 µM and the TGI [9] was greater than 100 µM. For the same molecule, the TGI [10] was greater than 100 µM, the TGI [11] was greater than 100 µM and the TGI [12] was greater than 100 µM. The TGI [13] was greater than 100 µM, the TGI [14] was greater than 100 µM and the TGI [15] was greater than 100 µM. The TGI [16] was greater than 100 µM, the TGI [17] was greater than 100 µM and the TGI [18] was greater than 100 µM. The TGI [19] was greater than 100 µM, the TGI [20] was greater than 100 µM and the TGI [21] was greater than 100 µM. The TGI [53] was greater than 100 µM, the TGI [23] was greater than 100 µM and the TGI [24] was greater than 100 µM. The TGI [25] was greater than 100 µM, the TGI [26] was greater than 100 µM and the TGI [27] was greater than 100 µM. For the same molecule, the TGI [54] was greater than 100 µM, the TGI [28] was greater than 100 µM and the TGI [55] was greater than 100 µM. For the same molecule, the TGI [29] was greater than 100 µM, the TGI [30] was greater than 100 µM and the TGI [31] was greater than 100 µM. It also gave a TGI [32] greater than 100 µM, a TGI [33] greater than 100 µM and a TGI [34] greater than 100 µM. The TGI [35] was greater than 100 µM, the TGI [36] was greater than 100 µM and the TGI [37] was greater than 100 µM. It also gave a TGI [38] greater than 100 µM, a TGI [39] greater than 100 µM and a TGI [40] greater than 100 µM. For the same molecule, the TGI [41] was greater than 100 µM, the TGI [56] was greater than 100 µM and the TGI [42] was greater than 100 µM. For the same molecule, the TGI [43] was greater than 100 µM, the TGI [44] was greater than 100 µM and the TGI [45] was greater than 100 µM. It also gave a TGI [57] greater than 100 µM, a TGI [46] greater than 100 µM and a TGI [47] greater than 100 µM. For the same molecule, the TGI [48] was greater than 100 µM, the TGI [49] was greater than 100 µM and the TGI [50] was greater than 100 µM. It also gave a TGI [51] greater than 100 µM and a TGI [52] greater than 100 µM.
